We go through 27 compounds from ChEMBL document CHEMBL1133190, “SPR biosensor studies of the direct interaction between 27 drugs and a liposome surface: correlation with fraction absorbed in humans” (J Med Chem, 2000).

The structures appear in SMILES notation.

Data set [1] concerns Liposome. Nature of the data set: (§1) Binding to POPC/GMI liposomes using biosensor system. The format is functional.
Data set [2] relates to Liposome. Nature of the data set: (§2) Binding to POPC (palmitoyl-oleolyl-phosphatidyl-choline) liposomes using biosensor system. The format is functional.
Data set [3] in a line: Estimation of fraction absorbed (Fa) in the human intestine using biosensor technology. The format is ADME, organism-based. To be noted: in vivo.
Data set [4] deals with Liposome. Described as §2.
The subject of data set [5] is Liposome. Described as §1.

Consider `CNCCCN1c2ccccc2CCc2ccccc21` [DESIPRAMINE], for which the Other worked out at 1200 in data set [1] and 1010 in data set [2]. Also, the Fa in data set [3] is 100%.
The corresponding values for `CC1(C)S[C@@H]2[C@H](NC(=O)[C@H](N)c3ccc(O)cc3)C(=O)N2[C@H]1C(=O)O` [AMOXICILLIN] are 9, 17 and 90%.
In the case of `OC[C@@H](O)[C@@H](O)[C@H](O)[C@H](O)CO`, the Other came out at 29 in data set [1] and 22 in data set [2].
Turning to `CC(C(=O)O)c1cccc(C(=O)c2ccccc2)c1` (stereo unspecified) [KETOPROFEN], the Other was determined as 101 in data set [1] and 62 in data set [2]. For the same compound, the Fa in data set [3] was 100%.
In the case of `OC[C@H]1O[C@@H](O[C@@H]2[C@@H](CO)O[C@](O)(CO)[C@H]2O)[C@H](O)[C@@H](O)[C@H]1O`, the values for the Other in data set [1] and in data set [2] were 29 and 22, respectively.
As to `CC(C)C[C@H](N)C(=O)O` [LEUCINE], the Other was determined as 18 in data set [4] and 11 in data set [5]. Moreover, the Fa in data set [3] is 100%.
On to `CC(C)NCC(O)COc1cccc2[nH]ccc12` (stereo unspecified), for which the Other was determined as 314 in data set [1] and 142 in data set [2].
For the compound `COc1ccc(CCN(C)CCCC(C#N)(c2ccc(OC)c(OC)c2)C(C)C)cc1OC` (stereo unspecified), the Fa in data set [3] was 100%.
In the case of `NS(=O)(=O)c1cc(C(=O)O)c(NCc2ccco2)cc1Cl` [FUROSEMIDE], the Other came to 92 in data set [1] and 56 in data set [2]. In addition, in data set [3], the Fa was 50%.
For `NC(=O)N1c2ccccc2C=Cc2ccccc21` [CARBAMAZEPINE] the same measures were 144, 70 and 100%.
In the case of `NC(N)=O` [UREA], the results for the Other in data set [4] and in data set [5] were 23 and 26, respectively. The Fa in data set [3] is 100%.
With `CC(C)(C)NCC(O)c1cc(O)cc(O)c1` (stereo unspecified), the Other in data set [4] was found to be 47; in data set [5] it was 117.
For the compound `COc1ccc2cc([C@H](C)C(=O)O)ccc2c1` [NAPROXEN], the Other came to 109 in data set [4] and 183 in data set [5]. Moreover, in data set [3], the Fa is 100%.
Consider `C=CCOc1ccccc1OCC(O)CNC(C)C` (stereo unspecified), for which the Other in data set [1] worked out at 277; in data set [2] it was 120.
In the case of `CC(C)NCC(O)COc1cccc2ccccc12` (stereo unspecified) [PROPRANOLOL], the Other in data set [1] was found to be 839; in data set [2], 683. Further, in data set [3], the Fa was 100%.
For `CN1CC(=O)NC1=N` [CREATININE], the Other in data set [4] was 22; in data set [5] it was 13. Moreover, the Fa in data set [3] is 100%.
Consider `NS(=O)(=O)c1cc2c(cc1Cl)NCNS2(=O)=O` [HYDROCHLOROTHIAZIDE], for which the Other in data set [1] was 95; in data set [2] it was 60. For the same compound, in data set [3], the Fa was 55%.
`O=C(O)c1cc(/N=N/c2ccc(S(=O)(=O)Nc3ccccn3)cc2)ccc1O`: the results for the Other in data set [4] and in data set [5] were 241 and 348, respectively.
For `C=CCc1ccccc1OCC(O)CNC(C)C` (stereo unspecified), the figures for the Other in data set [1] and in data set [2] were 480 and 297, respectively.
For `CC(C)NCC(O)COc1ccc(CC(N)=O)cc1` (stereo unspecified) the same measures were 38 and 24.
For `NC[C@H]1CC[C@H](C(=O)O)CC1` the same measures were 14 and 20.
For `OC[C@H]1O[C@H](OC[C@H]2O[C@H](O[C@]3(CO)O[C@H](CO)[C@@H](O)[C@@H]3O)[C@H](O)[C@@H](O)[C@@H]2O)[C@H](O)[C@@H](O)[C@H]1O` the same measures were 34 and 24.
With `CCN1CCCC1CNC(=O)c1cc(S(N)(=O)=O)ccc1OC` (stereo unspecified), the Other in data set [1] stood at 78; in data set [2], 47.
On to `O=C(O)P(=O)(O)O`, for which the Other was found to be 32 in data set [4] and 62 in data set [5].
In the case of `OC[C@H]1OC(O)[C@H](O)[C@@H](O)[C@@H]1O` (stereo partly specified) [DEXTROSE], the values for the Other in data set [1] and in data set [2] were 10 and 18, respectively. In data set [3], the Fa is 100%.
In the case of `COCCc1ccc(OCC(O)CNC(C)C)cc1` (stereo unspecified), the figures for the Other in data set [4] and in data set [5] were 82 and 179, respectively.
Turning to `Cc1cc(=O)n(-c2ccccc2)n1C` [ANTIPYRINE], the Other in data set [1] came to 12; in data set [2], 19. In addition, in data set [3], the Fa is 100%.
